Results from patent US20080145383A1, “Method for Solubilizing Peptide Mixtures” (priority 2004, published 2008).
Peptide text beside a SMILES is read from it.

What was measured:
[1] = Solubility of the single peptides in water and DMSO; assay type: physicochemical; details: single peptide
Protocol: In the scope of the present invention peptides are characterised by their solubility. Peptides which are soluble in an aqueous solution less than 100 μg/ml are considered hydrophobic. On the other hand hydrophilic peptides dissolve in a buffered aqueous solution in concentration over 100 μg/ml. Hydrophilic peptides may further be divided into cationic (>20% basic amino acids including lysine, arginine, histidine), anionic (>20% acidic amino acids including aspartic acid, glutamic acid) and hydroxyl-rich peptides (>30% —OH containing amino acids like serine, threonine, tyrosine).
The peptide mixture contains 6 peptides (see table 1), which show a broad range of solubility. […] Peptides 1236, 1240, and 1242 can sequentially be dissolved in water, provided that the final pH is adjusted to pH 8.5. At lower pH a gel is formed presumably due to charge interactions and/or hydrogen bond formation. This gel can not be sterile filtered as it blocks the filter immediately. However, upon addition of poly-L-arginine (pR) to the aqueous solution of the three peptides a precipitate forms that makes sterile filtration of the solution impossible.
As with the formulation of example 1, for the manufacturing of a suspension formulation it is necessary first to dissolve peptides 83 and 84 in an aqueous buffer solution and peptides 87, 89, and 1426 in DMSO. After sterile filtration the solutions can be combined to form the final suspension.

[2] = suspension formulation stored at room temperature (Figure C)

| Compound | solubility in DMSO [1] | solubility in water [1] | solubility in water ([1]; listed as Ipep 84) | degradation [2] |
| --- | --- | --- | --- | --- |
| CC[C@H](C)[C@H](NC(=O)[C@H](CCC(N)=O)NC(=O)CNC(=O)CNC(=O)CNC(=O)[C@@H]1CCCN1C(=O)[C@H](Cc1ccccc1)NC(=O)[C@@H](N)CCCCN)C(=O)N[C@H](C(=O)NCC(=O)NCC(=O)N[C@H](C(=O)N[C@@H](Cc1ccc(O)cc1)C(=O)N[C@@H](CC(C)C)C(=O)N[C@@H](CC(C)C)C(=O)N1CCC[C@H]1C(=O)N[C@@H](CCCNC(=N)N)C(=O)N[C@@H](CCCNC(=N)N)C(=O)NCC(=O)N1CCC[C@H]1C(=O)N[C@@H](CCCNC(=N)N)C(=O)N[C@@H](CC(C)C)C(=O)O)C(C)C)C(C)C [Peptide 83] (H-KFPGGGQIVGGVYLLPRRGPRL-OH; N-terminus and C-terminus assumed) | soluble | soluble | – | – |
| CC(C)C[C@H](NC(=O)[C@@H](NC(=O)[C@H](CC(C)C)NC(=O)[C@@H](NC(=O)[C@H](CCCCN)NC(=O)[C@H](Cc1ccc(O)cc1)NC(=O)CN)C(C)C)C(C)C)C(=O)N[C@@H](CC(N)=O)C(=O)N1CCC[C@H]1C(=O)N[C@@H](CO)C(=O)N[C@H](C(=O)N[C@@H](C)C(=O)N[C@@H](C)C(=O)N[C@H](C(=O)O)[C@@H](C)O)C(C)C [Peptide 84] | soluble | soluble | water soluble | – |
| CC[C@H](C)[C@H](NC(=O)[C@H](Cc1ccc(O)cc1)NC(=O)CNC(=O)[C@H](CCSC)NC(=O)[C@H](CC(C)C)NC(=O)[C@@H](N)CC(=O)O)C(=O)N1CCC[C@H]1C(=O)N[C@@H](C)C(=O)N[C@H](C(=O)O)C(C)C [Peptide 87] (H-DLMGYIPAV-OH; N-terminus and C-terminus assumed) | dissolve easily in DMSO | poorly water soluble | – | – |
| CC[C@H](C)[C@H](N)C(=O)N[C@@H](CC(=O)O)C(=O)N[C@@H](CCC(=O)O)C(=O)N[C@@H](CC(C)C)C(=O)N[C@@H](CCCCN)C(=O)N[C@H](C(=O)N[C@@H](CC(N)=O)C(=O)N[C@@H](CO)C(=O)N[C@@H](CO)C(=O)N[C@@H](CC(C)C)C(=O)N[C@@H](CC(C)C)C(=O)N[C@H](C(=O)N[C@@H](CO)C(=O)N[C@H](C(=O)N[C@@H](CC(C)C)C(=O)N[C@H](C(=O)N[C@@H](Cc1ccc(O)cc1)C(=O)N[C@@H](Cc1c[nH]cn1)C(=O)N[C@H](C(=O)N[C@H](C(=O)O)C(C)C)C(C)C)[C@@H](C)O)[C@@H](C)CC)[C@@H](C)O)[C@@H](C)O [Peptide 1235] (H-IDELKTNSSLLTSILTYHVV-OH; N-terminus and C-terminus assumed) | only dissolve in DMSO | hydrophobic | – | – |
| CC[C@H](C)[C@H](NC(=O)[C@H](CC(N)=O)NC(=O)[C@@H](NC(=O)[C@@H](NC(=O)CNC(=O)[C@H](C)NC(=O)[C@H](C)NC(=O)[C@H](C)NC(=O)[C@H](CCC(N)=O)NC(=O)[C@H](C)NC(=O)[C@@H](NC(=O)CNC(=O)[C@H](C)NC(=O)CNC(=O)[C@H](CO)NC(=O)CNC(=O)[C@@H](N)[C@@H](C)O)[C@@H](C)CC)[C@@H](C)O)C(C)C)C(=O)O [Peptide 1236] | does not dissolve in DMSO | slowly dissolves in water | – | – |
| CC[C@H](C)[C@H](NC(=O)[C@@H](NC(=O)[C@H](C)NC(=O)[C@@H](NC(=O)[C@H](CO)NC(=O)[C@H](CO)NC(=O)[C@H](CCCCN)NC(=O)[C@H](CC(C)C)NC(=O)[C@H](CC(=O)O)NC(=O)[C@H](CO)NC(=O)[C@@H](N)C(C)C)[C@@H](C)O)C(C)C)C(=O)N1CCC[C@H]1C(=O)NCC(=O)N[C@@H](Cc1ccc(O)cc1)C(=O)N1CCC[C@H]1C(=O)N[C@H](C(=O)N[C@@H](C)C(=O)NCC(=O)N[C@@H](CCC(N)=O)C(=O)N[C@H](C(=O)O)C(C)C)C(C)C [Peptide 1240] (H-VSDLKSSTAVIPGYPVAGQV-OH; N-terminus and C-terminus assumed) | can also be dissolved in DMSO | water soluble | – | – |
| CC(C)C[C@H](NC(=O)[C@H](Cc1ccccc1)NC(=O)[C@@H](N)CC(N)=O)C(=O)N[C@@H](CC(C)C)C(=O)N1CCC[C@H]1C(=O)N[C@@H](CC(=O)O)C(=O)N[C@@H](C)C(=O)N[C@@H](CCC(N)=O)C(=O)N[C@@H](C)C(=O)N[C@@H](C)C(=O)N[C@@H](C)C(=O)N[C@@H](C)C(=O)NCC(=O)N[C@@H](Cc1ccccc1)C(=O)N[C@@H](C)C(=O)N[C@@H](CO)C(=O)N[C@@H](CCCCN)C(=O)O [Peptide 1241] (H-NFLLPDAQAAAAGFASK-OH; N-terminus and C-terminus assumed) | only dissolve in DMSO | hydrophobic | – | – |
| CC[C@H](C)[C@H](NC(=O)[C@H](CC(N)=O)NC(=O)[C@@H](NC(=O)[C@H](CC(N)=O)NC(=O)[C@@H](N)Cc1ccc(O)cc1)[C@@H](C)CC)C(=O)N[C@@H](CO)C(=O)N[C@@H](CC(C)C)C(=O)N1CCC[C@H]1C(=O)N[C@@H](CO)C(=O)N[C@@H](Cc1ccc(O)cc1)C(=O)N[C@@H](Cc1ccc(O)cc1)C(=O)N1CCC[C@H]1C(=O)N[C@@H](CC(=O)O)C(=O)N[C@@H](CCC(N)=O)C(=O)N[C@@H](CCCCN)C(=O)N[C@@H](CO)C(=O)N[C@@H](CC(C)C)C(=O)N[C@@H](CCC(=O)O)C(=O)N[C@@H](CC(N)=O)C(=O)N[C@@H](Cc1ccc(O)cc1)C(=O)O [Peptide 1242] (H-YNINISLPSYYPDQKSLENY-OH; N-terminus and C-terminus assumed) | can also be dissolved in DMSO | water soluble | – | – |
| CC[C@H](C)[C@H](NC(=O)CNC(=O)[C@H](CO)NC(=O)[C@@H](NC(=O)[C@H](Cc1ccccc1)NC(=O)[C@H](CC(N)=O)NC(=O)[C@H](Cc1c[nH]c2ccccc12)NC(=O)[C@H](CCSC)NC(=O)[C@@H](N)Cc1c[nH]cn1)[C@@H](C)CC)C(=O)N[C@@H](CCC(N)=O)C(=O)N[C@@H](Cc1ccc(O)cc1)C(=O)N[C@@H](CC(C)C)C(=O)N[C@@H](C)C(=O)NCC(=O)N[C@@H](CC(C)C)C(=O)N[C@@H](CO)C(=O)N[C@H](C(=O)N[C@@H](CC(C)C)C(=O)N1CCC[C@H]1C(=O)NCC(=O)N[C@@H](CC(N)=O)C(=O)N1CCC[C@H]1C(=O)N[C@@H](C)C(=O)O)[C@@H](C)O [Peptide 1426] (H-HMWNFISGIQYLAGLSTLPGNPA-OH; N-terminus and C-terminus assumed) | only soluble in DMSO | – | – | – |
| CC[C@H](C)[C@H](N)C(=O)NCC(=O)N[C@@H](CC(C)C)C(=O)NCC(=O)N[C@@H](CCCCN)C(=O)N[C@H](C(=O)N[C@@H](CC(C)C)C(=O)N[C@H](C(=O)N[C@@H](CC(=O)O)C(=O)N[C@H](C(=O)N[C@@H](CC(C)C)C(=O)N[C@@H](C)C(=O)NCC(=O)N[C@@H](Cc1ccc(O)cc1)C(=O)NCC(=O)N[C@@H](C)C(=O)NCC(=O)N[C@H](C(=O)N[C@@H](C)C(=O)NCC(=O)N[C@@H](C)C(=O)N[C@@H](CC(C)C)C(=O)N[C@H](C(=O)N[C@@H](C)C(=O)N[C@@H](Cc1ccccc1)C(=O)N[C@@H](CCCCN)C(=O)O)C(C)C)C(C)C)[C@@H](C)CC)C(C)C)C(C)C [Peptide 1798] (H-IGLGKVLVDILAGYGAGVAGALVAFK-OH; N-terminus and C-terminus assumed) | – | water soluble on its own | – | – |
| CC[C@H](C)[C@H](NC(=O)[C@H](CCC(N)=O)NC(=O)CNC(=O)CNC(=O)CNC(=O)[C@@H]1CCCN1C(=O)[C@H](Cc1ccccc1)NC(=O)[C@@H](N)CCCCN)C(=O)N[C@H](C(=O)NCC(=O)NCC(=O)N[C@H](C(=O)N[C@@H](Cc1ccc(O)cc1)C(=O)N[C@@H](CC(C)C)C(=O)N[C@@H](CC(C)C)C(=O)N1CCC[C@H]1C(=O)N[C@@H](CCCNC(=N)N)C(=O)N[C@@H](CCCNC(=N)N)C(=O)NCC(=O)N1CCC[C@H]1C(=O)N[C@@H](CCCNC(=N)N)C(=O)N[C@@H](CC(C)C)C(=O)NCC(=O)N[C@H](C(=O)N[C@@H](CCCNC(=N)N)C(=O)N[C@@H](C)C(=O)N[C@H](C(=O)N[C@@H](CCCNC(=N)N)C(=O)N[C@@H](CCCCN)C(=O)O)[C@@H](C)O)C(C)C)C(C)C)C(C)C [Peptide 1835] (H-KFPGGGQIVGGVYLLPRRGPRLGVRATRK-OH; N-terminus and C-terminus assumed) | – | water soluble | – | – |
| CC[C@H](C)[C@H](NC(=O)[C@@H](NC(=O)[C@H](Cc1ccccc1)NC(=O)[C@H](CC(N)=O)NC(=O)[C@@H](NC(=O)[C@@H](NC(=O)[C@H](CS)NC(=O)[C@@H]1CCCN1C(=O)[C@H](Cc1ccc(O)cc1)NC(=O)[C@H](Cc1c[nH]cn1)NC(=O)[C@H](Cc1c[nH]c2ccccc12)NC(=O)[C@H](CC(C)C)NC(=O)[C@H](CCCNC(=N)N)NC(=O)[C@H](Cc1ccc(O)cc1)NC(=O)[C@@H]1CCCN1C(=O)[C@H](Cc1ccc(O)cc1)NC(=O)[C@@H](N)CC(=O)O)[C@@H](C)O)C(C)C)[C@@H](C)O)C(=O)N[C@@H](Cc1ccccc1)C(=O)N[C@@H](CCCCN)C(=O)N[C@H](C(=O)O)C(C)C [Peptide 1846] (H-DYPYRLWHYPCTVNFTIFKV-OH; N-terminus and C-terminus assumed) | – | – | – | oxidation of Ipep 1846 to its dimer |
